Experimental data published in US6639123B1, “Melanocortin-3 receptor deficient cells, non-human trangenic animals and methods of selecting compounds which regulate body weight” (Merck & Co., Inc., priority 1999, dated 2003).

Tested on: male MC-3R^−/− and WT mice
Test: Peripheral MTII administration: 24-h food consumption
Details: single intraperitoneal injection, 10 mg/kg, n=9, P<0.05
Protocol: Peripheral MTII administration—For seven consecutive days, individually-housed 23-25-week-old male MC-3R^−/− (n=9) and WT (n=9) mice received an intraperitoneal (ip) injection of a sterile 0.9% NaCl vehicle solution approximately 30 min before the onset of the dark phase of the light cycle. At the same time on the eighth consecutive day of the study, mice received an ip injection of MTII at a dose of 10 mg/kg delivered in vehicle. Body and food (Teklad 7012) weights were measured and recorded daily approximately 15 min prior to injection.

MTII
reduction of food consumption over a 24-h period relative to a 2-day vehicle treatment baseline (MC-3R^−/− male mice): 16.9±7.0%
reduction of food consumption over a 24-h period relative to a 2-day vehicle treatment baseline (WT male mice): 11.1±4.3%
